Laboratory results from paper PMC6952399, “Structures of lipoprotein signal peptidase II from Staphylococcus aureus complexed with antibiotics globomycin and myxovirescin” (Nature Communications, 2020).
“And” between values parts separate entries of the source, which are not always exact repeats. Equal values may be shown once.

Target: T1, LspPae (lipoprotein signal peptidase II from Pseudomonas aeruginosa) (Pseudomonas aeruginosa, UniProt Q9HVM5)
T1 construct: made in house
T1 sequence (Q9HVM5 1-169): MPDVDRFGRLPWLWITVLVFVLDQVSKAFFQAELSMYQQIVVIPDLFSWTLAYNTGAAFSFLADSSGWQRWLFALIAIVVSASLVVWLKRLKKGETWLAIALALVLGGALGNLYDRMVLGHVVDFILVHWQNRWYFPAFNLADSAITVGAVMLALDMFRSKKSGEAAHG
Test: FRET lipopeptide peptidase assay, LspPae
Type: biochemical
Settings: for Fluorescence (RFU): FRET substrate + LspA + Globomycin; for Rate (RFU/min) / Normalised rate (Vi/V0): replicates 1 and 2; for Ki: estimated Ki’ (apparent inhibition constant)
Method: FRET activity assays. A FRET based assay was developed using a labelled lipopeptide substrate (Supplementary Methods, Supplementary Fig. 3b) to directly monitor the protease activity of LspA. The optimised LspMrs assay buffer included 100 mM Tris/HCl pH 7.8, 150 mM NaCl and 0.09%(w/v) DDM. The corresponding optimized buffer for LspPae included 100 mM MES/NaOH pH 5.6, 150 mM NaCl and 0.05%(w/v) LMNG. All assays were performed at 37 °C.
Reaction mixtures were prepared by vortexing (Clifton, cyclone CM-1) for 2 s and incubated at 37 °C, 800 rpm for 10 to 30 min. […] For dose-response assays, the final DMSO concentration in all reactions was 10%(v/v). Reaction mixtures were pipetted into wells of a 96- (Thermo Scientific) or a 384-well plate (4titude®) and incubated for 10 min at 37 °C in a SpectraMax M3 or a SpectraMax M5e plate reader (Molecular devices) prior to starting the assay. Assays were initiated by adding enzyme to a final concentration in the range 10–300 nM. Total reaction mixture volume was 50 μL. Reactions were monitored by fluorescence (Ex/Em, 320 nm/420 nm) for 30 to 60 min at 37 °C. Initial rates were calculated from the fluorescence intensity versus time progress curves (Supplementary Figs. 5 and 6). Occasionally, lag periods in the progress curves were observed (Supplementary Discussion). In such cases, initial rates were calculated after the lag period had passed (typically 1–5 min) and a steady rate had been established. Dose-response plots to determine IC50 values were generated using Prism® 5 software from GraphPad.
It was possible to convert units of fluorescence change into moles of substrate consumed or products formed because pure products of LspA action on Abz-LALAGC*SS-nY-NH2 had been synthesized and were available. These were used to create a standard curve of fluorescence versus moles of the two products in equimolar amounts and to calculate specific activity values. […]
One consequence of LspMrs having a relatively low specific activity is that, in order to get a reliable signal in activity assays, it was necessary to raise enzyme concentration. For kinetic measurements generally, it is desirable to use an enzyme concentration that is much lower than that of the substrate. In this situation, the usual assumption that added and free substrate concentrations are equal is valid. At high enzyme concentrations [E] therefore, and especially in the case of tight ligand binding where the inhibition constant, Ki, is small, a measured IC50 is limited to [E]/2 4–6. In such circumstances, a meaningful IC50 or Ki can only be obtained with considerable effort. With a few exceptions in the current study, this situation prevailed with both LspA orthologs where IC50 values came close to [E]/2 (Table 1 and Supplementary Table 3, Supplementary Fig. 6). […]
Inhibition of LspA from E. coli by globomycin has been described as non-competitive7. The evidence provided in support o f this conclusion included an insensitivity of IC 50 to substrate concentration and the fact that the Vmax but not the K m changed with globomycin concentration. It was of interest to determine if a similar mode of inhibition applied to LspPae and LspMrs. From published work7–9 and from FRET-based kinetics measurements reported here, we know that globomycin binds with high affinity (Supplementary Fig. 6). Tight binding means that a more in-depth analysis must be carried out in order to identify inhibition type. For such analysis, it is important to know active enzyme concentration accurately. Fortunately, it was possible to use the property of tight inhibitor binding to measure the concentration of active enzyme ( Supplementary Fig. 18a). In the case of LspPae, the estimated value and the concentration determined spectroscopically agreed remarkably well. Parenthetically we note that knowing active LspPae concentration accurately enabled a characterization of the myxovirescin sample used in this study. Myxovirescin also binds tightly to LspA (Supplementary Fig. 6). […]

[1] = Suppl. Fig. 18a, [Globomycin] 0.02 M
[2] = Suppl. Fig. 18a, [Globomycin] 0.08 M
[3] = Suppl. Fig. 18a, [Globomycin] 0.1 M
[4] = Suppl. Fig. 18a, [Globomycin] 0.12 M
[5] = Suppl. Fig. 18a, [Globomycin] 0.15 M
[6] = Suppl. Fig. 18a, [Globomycin] 0.25 M

CCCCCC[C@H]1OC(=O)CNC(=O)[C@H]([C@H](C)O)NC(=O)[C@H](CO)NC(=O)[C@H]([C@H](C)CC)NC(=O)[C@H](CC(C)C)N(C)C(=O)[C@@H]1C [globomycin]
inhibitor on-rates (5-fold molar excess of antibiotic added 20 to 30 min after start of reaction): fast
Fluorescence (RFU) (time 26.5 min): 472.821 RFU
Fluorescence (RFU) (time 27 min): 466.895 RFU
Fluorescence (RFU) (time 27.5 min): 470.521 RFU
Fluorescence (RFU) (time 28 min): 460.426 RFU
Fluorescence (RFU) (time 28.5 min): 463.196 RFU
Fluorescence (RFU) (time 29 min): 462.392 RFU
Fluorescence (RFU) (time 29.5 min): 469.501 RFU
Fluorescence (RFU) (time 30 min): 460.374 RFU
Fluorescence (RFU) (time 30.5 min): 459.928 RFU
Fluorescence (RFU) (time 31 min): 456.673 RFU
Fluorescence (RFU) (time 31.5 min): 461.288 RFU
Fluorescence (RFU) (time 32 min): 457.637 RFU
Fluorescence (RFU) (time 32.5 min): 459.756 RFU
Fluorescence (RFU) (time 33 min): 461.040 RFU
Fluorescence (RFU) (time 33.5 min): 455.548 RFU
Fluorescence (RFU) (time 34 min): 459.251 RFU
Fluorescence (RFU) (time 34.5 min): 461.912 RFU
Fluorescence (RFU) (time 35 min): 462.029 RFU
Fluorescence (RFU) (time 35.5 min): 459.871 RFU
Fluorescence (RFU) (time 36 min): 456.705 RFU
Fluorescence (RFU) (time 36.5 min): 457.128 RFU
Fluorescence (RFU) (time 37 min): 457.399 RFU
Fluorescence (RFU) (time 37.5 min): 460.693 RFU
Fluorescence (RFU) (time 38 min): 454.401 RFU
Fluorescence (RFU) (time 38.5 min): 457.430 RFU
Fluorescence (RFU) (time 39 min): 456.060 RFU
Fluorescence (RFU) (time 39.5 min): 454.659 RFU
Fluorescence (RFU) (time 40 min): 457.707 RFU
Fluorescence (RFU) (time 40.5 min): 450.482 RFU
Fluorescence (RFU) (time 41 min): 454.135 RFU
Fluorescence (RFU) (time 41.5 min): 449.262 RFU
Fluorescence (RFU) (time 42 min): 454.556 RFU
Fluorescence (RFU) (time 42.5 min): 450.049 RFU
Fluorescence (RFU) (time 43 min): 449.698 RFU
Fluorescence (RFU) (time 43.5 min): 456.047 RFU
Fluorescence (RFU) (time 44 min): 454.046 RFU
Fluorescence (RFU) (time 44.5 min): 452.003 RFU
Fluorescence (RFU) (time 45 min): 447.269 RFU
Fluorescence (RFU) (time 45.5 min): 454.250 RFU
Fluorescence (RFU) (time 46 min): 454.835 RFU
Fluorescence (RFU) (time 46.5 min): 452.245 RFU
Fluorescence (RFU) (time 47 min): 453.938 RFU
Fluorescence (RFU) (time 47.5 min): 452.432 RFU
Fluorescence (RFU) (time 48 min): 453.748 RFU
Fluorescence (RFU) (time 48.5 min): 446.264 RFU
Fluorescence (RFU) (time 49 min): 454.134 RFU
Fluorescence (RFU) (time 49.5 min): 458.300 RFU
Fluorescence (RFU) (time 50 min): 453.740 RFU
Fluorescence (RFU) (time 50.5 min): 458.019 RFU
Fluorescence (RFU) (time 51 min): 452.119 RFU
IC50 (IC50, 20 nM LspPae, substrate 2.5 µM): 5.32 nM and 7.73 nM
IC50 (IC50, 20 nM LspPae, substrate 5 µM): 6.43 nM and 11.1 nM
IC50 (IC50, 20 nM LspPae, substrate 7.5 µM): 6.63 nM and 10.1 nM
IC50 (IC50, 20 nM LspPae, substrate 10 µM): 7.18 nM and 9.58 nM
IC50 (IC50, 20 nM LspPae, substrate 20 µM): 5.81 nM and 8.79 nM
IC50 (IC50, 20 nM LspPae, substrate 30 µM): 5.73 nM and 9.79 nM
IC50 (IC50, FRET, 0.1 µM enzyme, 30 µM substrate, initial rates): 57 nM
IC50 (IC50, LspPae concentration 10 nM): 5.5 nM and 7.7 nM
IC50 (IC50, LspPae concentration 20 nM): 10.6 nM and 17.6 nM
IC50 (IC50, LspPae concentration 40 nM): 22.6 nM and 26.4 nM
IC50 (IC50, LspPae concentration 60 nM): 27.8 nM and 39 nM
IC50 (IC50, LspPae concentration 80 nM): 37.9 nM and 55.3 nM
IC50 (IC50, LspPae concentration 100 nM): 52.6 nM and 61.3 nM
Rate (RFU/min) (LspPae + Globomycin, log [globomycin] (µM) -0.60): 0.6 RFU/min and 0.7 RFU/min
Rate (RFU/min) (LspPae + Globomycin, log [globomycin] (µM) -0.82): 0.856 RFU/min and 1.1 RFU/min
Rate (RFU/min) (LspPae + Globomycin, log [globomycin] (µM) -0.92): 0.9 RFU/min and 0.95 RFU/min
Rate (RFU/min) (LspPae + Globomycin, log [globomycin] (µM) -1.00): 4.1 RFU/min and 3.2 RFU/min
Rate (RFU/min) (LspPae + Globomycin, log [globomycin] (µM) -1.10): 12.3 RFU/min and 11.9 RFU/min
Rate (RFU/min) (LspPae + Globomycin, log [globomycin] (µM) -1.30): 31.7 RFU/min and 30.1 RFU/min
Rate (RFU/min) (LspPae + Globomycin, log [globomycin] (µM) -1.70): 42.7 RFU/min
Normalised rate (Vi/V0) [1]: 0.8723 and 0.8656
Rate (RFU/min) [1]: 40.92 RFU/min and 41.48 RFU/min
Normalised rate (Vi/V0) (Suppl. Fig. 18a, [Globomycin] 0.05 M): 0.6284 and 0.6375
Normalised rate (Vi/V0) [2]: 0.2526 and 0.2533
Rate (RFU/min) [2]: 11.85 RFU/min and 12.14 RFU/min
Normalised rate (Vi/V0) [3]: 0.07205 and 0.07513
Rate (RFU/min) [3]: 3.38 RFU/min and 3.6 RFU/min
Normalised rate (Vi/V0) [4]: 0.01684 and 0.01523
Rate (RFU/min) [4]: 0.79 RFU/min and 0.73 RFU/min
Normalised rate (Vi/V0) [5]: 0.0162 and 0.00793
Rate (RFU/min) [5]: 0.76 RFU/min and 0.38 RFU/min
Normalised rate (Vi/V0) [6]: 0.02132 and 0.008139
Rate (RFU/min) [6]: 1 RFU/min and 0.39 RFU/min
Rate (RFU/min) (Suppl. Fig. 18a): 29.48 RFU/min and 30.55 RFU/min
IC50 (average IC50, 20 nM LspPae, substrate 2.5 or 5 to 30 µM): ~10 nM
Ki (Morrison analysis, 30 µM substrate, 0.1 µM LspPae): 0.74 ± 0.41 nM
Ki (from dependence of IC50 on enzyme concentration, IC50 = Ki’ + [E]/2): 1.96 ± 3 nM
